Earlier results in paper PMC6343925, “Cholesterol re-organisation and lipid de-packing by arginine-rich cell penetrating peptides: Role in membrane translocation” (PLoS ONE, 2019).
No end group written: not given here.

Conditions: membranes contained PG; same experimental approach

translocation into LUVs	Compound
able to translocate	N=C(N)NCCC[C@H](NC(=O)[C@H](CCCNC(=N)N)NC(=O)[C@H](CCCNC(=N)N)NC(=O)[C@H](CCCNC(=N)N)NC(=O)[C@H](CCCNC(=N)N)NC(=O)[C@H](CCCNC(=N)N)NC(=O)[C@H](CCCNC(=N)N)NC(=O)[C@H](CCCNC(=N)N)NC(=O)[C@@H](N)CCCNC(=N)N)C(N)=O [R9, Nona-arginine]
able to translocate	RRWWRRWRR-NH2 [RW9]
